Measured values as given in publication PMC4226669, “Anti-cancer potency of tasquinimod is enhanced via albumin-binding facilitating increased uptake in the tumor microenvironment” (Oncotarget, 2014).
Entries after “also recorded” stand apart in the source; their conditions may differ. Like-named read-outs stand apart in the source and are kept apart here.

Experiments:
[1] = Tissue distribution and metabolites in nude mice bearing CWR-22Rv1 cancers; format: in vivo, mouse; conditions: 4 hours post oral 5mg/kg tasquinimod; for concentration at 4 h: male, nude, mouse
Method: To determine the concentration of metabolites, nude mice bearing CWR-22Rv1 prostate cancers were orally administered with 5 mg/kg of ^14C- radiolabeled tasquinimod and 4 and 24 hours later, blood plasma and liver, kidney, and cancer tissue harvested and analyzed for determination of metabolites. […] The predominant metabolite is the O-demethylated quinoline compound, Figure 2A&B, but the concentration of the hydroxylated aromatic quinoline and the N-demethylated quinoline compounds, along with the O-demethylated quinoline compound are also higher in the liver than the blood at the time point studied, Figure 2B. Also in the kidney 40% of the drug is present as metabolites, with the concentration of the hydroxylated aromatic quinoline and the O-demethylated quinoline compounds being higher than in the blood, Figure 2B. In contrast, within the cancer > 80% of the total concentration of drug is present as parent tasquinimod, Figure 2B. Only the O-demethylated quinoline compound is present at a higher concentration in the cancer than blood, Figure 2B. The plasma concentration of total metabolites is < 10% at 4 hours, Figure 2B, and 24 hours post oral dosing with 5 mg/kg, Figure 2A.
Male nude mice bearing 200-300mm^3 CWR-22Rv1 cancers were given ^14C-labeled tasquinimod at a dose of 5 mg/kg via oral gavage. At times ranging from 30 min to 24 hour, groups of 4-6 mice were anaesthetized with ketamine and 1 ml of heparinized blood collected by cardiac puncture, followed by subsequent cardiac perfusion of saline to remove blood associated drug. An aliquot of liver, kidney, and cancer was removed, weighed and then homogenized. The radioactivity in 10 μL aliquots of tissue homogenates and blood plasma was determined using a liquid scintillation counter and used to calculate the total amount of tasquinimod plus its metabolites per gram of tissue or per ml of blood. The remaining sample volume was deproteinated with acetonitrile and the radioactivity of an aliquot of the supernatant determined and the remaining supernatant lyophilized, resuspended initially with 0.1mL dimethyl sulfoxide and diluted by the addition of 0.9mL deionized water prior to injection into the HPLC. The HPLC system consisted of Waters pumps using a Waters gradient controller to deliver mobile phase at a flow rate of 1mL per minute using a Supelcosil ABZ+ C18 column that is 150mm long by 4.6mm diameter and has 5μm particle size. The metabolites were separated using a linear gradient in which the starting mobile phase was 35% acetonitrile: 65% water: 0.1% Trifluoroacetic acid (TFA) increasing to 50% acetonitrile: 50% water: 0.1%TFA over 25 minutes, and then increased rapidly to 98% acetonitrile: 2% water: 0.1%TFA and held until 33 minutes before it is returned to the initial conditions for the next run. Fractions were collected and the radioactivity determined by scintillation counting. As controls, the individual elution time of non-radiolabeled standard solutions of the various tasquinimod metabolites was determined using UV absorption at 215nm. The results were expressed as concentration based upon tissue volume, assuming 1gram wet weight equals 1ml, or normalized to tissue vascular volume.

HUVEC cells = assay: In vitro cell metabolism in HUVEC; format: in vitro ADME, human; conditions: HUVEC exposed to 1 μM 14C-labeled tasquinimod, 48 hours
Method: The nuclear uptake results are consistent with tasquinimod being the active drug for both direct therapeutic effects on cancer cells and indirect effects via suppression of the angiogenic response of host endothelial cells. To confirm these conclusions, the concentration of tasquinimod metabolites produced by endothelial cells was compared to the potency of these metabolites for inhibiting angiogenesis. When HUVEC cells are exposed to 1 μM of ^14C-labeled tasquinimod for 48 hours, < 15% of the drug is metabolized with 10% (i.e., 100 nM) being converted to the quinoline-O-demethylated compound and < 2% (i.e., < 20 nM) being converted to the quinoline-N-demethylated or carboxamide-N-demethylated compounds.
For in vitro studies, cells were incubated with 1μM ^14C-labeled tasquinimod for indicated time period and then the media and cells or cell nuclei separately harvested, deproteinated with acetonitrile, and metabolites separated by HPLC and quantitated as described above.

[2] = system: human umbilical vein endothelial cells (HUVECs); assay: 3D in vitro endothelial sprouting and tube formation assay; format: cell-based; conditions: for IC50: Homo sapiens, HUVEC, 3D-HUVEC sprouting assay, read-out: IC50 (concentration of drug which inhibits by 50% the endothelial sprouting)
Excerpt: A three-dimensional (3D) in vitro endothelial sprouting and tube formation assay was utilized to define the anti-angiogenic potency of tasquinimod vs. these metabolites. In this 3D assay, human umbilical endothelial cells (i.e., HUVECs) are initially grown on microcarrier beads and the cell coated beads embedded in fibrin gels with media conditioned by normal human lung fibroblasts. Under these 3D-conditions, endothelial cells “sprout” producing 3D neovessel tubes with patent lumen within one week, Figure 4A - left panel. When tasquinimod is added at the initiation to these 3D-cultures, sprouting of the endothelial cells is inhibited, Figure 4B-right panel, with the potency for such inhibition, expressed as an IC50 value (i.e., the concentration of drug which inhibits by 50% the endothelial sprouting) of 0.5 μM, Figure 4C. […] Using this 3D-HUVEC assay, the potency (i.e., expressed as IC50) of tasquinimod metabolites to inhibit endothelial sprouting was compared to tasquinimod. […] To further confirm that tasquinimod itself and not the carboxamide-N-demethylated metabolite is the active drug, the response to ketoconazole alone and in combination with tasquinimod was tested in the 3D-endothelial sprouting assay.
The 3-dimensional (3D) in vitro angiogenic sprouting and tube formation assay was used as described previously. This 3D-endothelial sprouting assay was conducted using a minimum of 5 replicate wells per drug dose per experiment, repeated 3 independent times using human umbilical vein endothelial cells (HUVECs; Lonza Walkersville, Inc.) with modification that 20 μL of 10X concentrated Dulbecco's Modified Eagle's Media/10%FCS media conditioned by confluent human primary lung fibroblasts (Lonza) diluted to 200 μL of growth factor supplemented EGM-2 media (Lonza) was used instead of fibroblast co-culture.

Water solubility = format: physicochemical
[3] = system: CWR-22Rv1 human prostate cancer xenografts; assay: Dose-response growth inhibition of established CWR-22Rv1 xenografts (subcutaneous daily injection); format: in vivo, mouse; conditions: 20 days
Method: To confirm these in vitro results, mice were inoculated subcutaneously (SQ) with CWR-22Rv1 cells and remained untreated until the tumors grew to ~ 200 mm3 (i.e., ~ 200 mgs) and then they were randomly assigned to groups (n=10) which were injected SQ daily with 100 μl of propylene glycol vehicle only vs. vehicle delivering 0.1 or 1 mg/kg/day of either tasquinimod or its carboxamide-N-demethylated metabolite. Propylene glycol was used as vehicle due to the low water solubility of the carboxamide-N-demethylated metabolite. After 20 days of continuous treatment, the experiment was terminated and the total weight of each cancer determined and the results expressed both as average tumor weight in grams and as the ratio of the weight of the cancers in the treated vs. vehicle control animals (i.e., T/C ratio), Figure 5A.
(§1) The source, history, and characteristics of the human prostate cancer cell lines (i.e., LNCaP, LAPC4, and CWR-22Rv1 and the human umbilical vascular endothelial cells (HUVEC) used, as well as cell culture conditions for their in vitro maintenance and the in vivo protocol for their xenografting into immune-deficient nude male mice are as described previously. The source, history, and characteristics of the TRAMP-C2 mouse prostate cancer line, as well as cell culture conditions for their in vitro maintenance and the in vivo protocol for their growth in intact adult male syngeneic C57Bl/6J are as described previously. All lines were mycoplasma negative using the MycoSensor PCR Assay kit (Agilent Technologies) and genetically authenticated within the last 6 months using short tandem repeat profiling conducted by the Johns Hopkins Genetic Resource Core Facility. The source, history, and characteristics of the CWR-RH human prostate cancer xenograft are as described previously. In vitro growth curves were determined as described. Animal studies were conducted according to animal protocol MO09M434 approved by Johns Hopkins Animal Care and Use Committee. Daily drug dosing via oral gavage, the drinking water, or subcutaneous injection, as well as tumor volume measurements and determination of the blood vessel density within cancers, were as described previously. These experiments were repeated at 3 independent times for each xenograft.

[4] = system: CWR-22RH human prostate cancer; assay: Tumor take of CWR-22RH xenografts in castrated nude mice; format: in vivo, mouse
Method: To confirm this conclusion, castrated male nude mice were xenografted with the castrate resistant CWR-22RH human prostate cancer tissue and the animals immediately randomized into groups (n=10) which were: 1) left untreated as controls; 2) given daily oral treatment with tasquinimod alone via the drinking water (10mg/kg/day); 3) given oral ketoconazole alone via oral gavage at a daily dose which inhibits cytochrome P450 3A4 (i.e., 25 mg/kg/day); or 4) given a combination of the two drugs. […] These combined in vitro/in vivo results document tasquinimod, not one of its metabolites, is the active drug.
as §1

CYP-3A [5] = system: CYP-3A; design: method as in PMID 21391977; conditions: oral dose of 25mg/kg/day; cited from earlier work
CYP-3A [6] = system: CYP-3A; design: method as in PMID 15764719; conditions: read-out: IC50 for inhibition of CYP-3A; cited from earlier work
[7] = CWR-22Rv1 cancer tissue, CWR-22Rv1 cancer, 1gm tissue = 1ml, read-out: concentration in CWR-22Rv1 cancer
[8] = kidney, 1gm tissue = 1ml, read-out: concentration in kidney
[9] = liver, 1gm tissue = 1ml, read-out: concentration in liver
[10] = plasma, read-out: concentration in plasma

percentage of total drug in CWR-22Rv1 cancer ([1]; CWR-22Rv1 cancer)	percentage of total drug in kidney ([1]; kidney)	percentage of total drug in liver ([1]; liver)	concentration at 4 h [1, 7] [nM]	concentration at 4 h [1, 8] [nM]	concentration at 4 h [1, 9] [nM]	concentration at 4 h [1, 10] [nM]	percentage of total drug in plasma ([1]; plasma)	concentration of metabolite formed (HUVEC cells) [nM]	fraction of tasquinimod converted to the metabolite (HUVEC cells) [%]	Compound	IC50 [2] [µM]	also measured
< 1%	< 1%	< 1%	< 30	< 30	< 130	< 60	< 1%	< 20	< 2	COc1cccc2c1c(O)c(C(=O)Nc1ccc(C(F)(F)F)cc1)c(=O)n2C [Carboxamide-N-demethylate]	0.25	fold more potent than tasquinimod (lower IC50) in inhibiting endothelial sprouting ([2]; relative to tasquinimod): 2 fold; water solubility (Water solubility): low; Avg Tumor Weight ([3]; 0.1 mg/kg/day SQ): 0.891 ± 0.263 g; T/C Ratio ([3]; 0.1 mg/kg/day SQ): 0.512; Avg Tumor Weight ([3]; 1 mg/kg/day SQ): 0.724 ± 0.223 g; T/C Ratio ([3]; 1 mg/kg/day SQ): 0.415
< 1%	< 1%	2+/-1%	< 30	< 30	260	< 60	< 1%	< 20	< 2	COc1cccc2[nH]c(=O)c(C(=O)N(C)c3ccc(C(F)(F)F)cc3)c(O)c12 [Quinoline-N-demethylate]	20	
										CC(=O)N1CCN(c2ccc(OCC3COC(Cn4ccnc4)(c4ccc(Cl)cc4Cl)O3)cc2)CC1 (stereo not drawn) [ketoconazole]		effect of ketoconazole on anti-cancer efficacy of tasquinimod ([4]; ketoconazole 25 mg/kg/day combined with tasquinimod 10mg/kg/day): does not affect; also recorded: does not inhibit the therapeutic efficacy of tasquinimod; also recorded: does not suppress; tumor take and growth ([4]; ketoconazole alone 25 mg/kg/day via oral gavage from inoculation): does not inhibit either the take or growth; inhibition of CYP-3A (CYP-3A [5]): > 90%; effect of ketoconazole on tasquinimod's inhibition of 3D HUVEC sprouting ([2]; 10 μM ketoconazole simultaneously present with 1 μM tasquinimod): does not affect; also recorded: does not prevent inhibition; also recorded: does not suppress; inhibition of endothelial sprouting ([2]; ketoconazole alone, 10 μM): did not inhibit; IC50 (CYP-3A [6]): […]
17+/- 4%	36+/-4%	62+/-7%	460	1400	8100	300	5+/-1%	100	10	CN(C(=O)c1c(O)c2c(O)cccc2n(C)c1=O)c1ccc(C(F)(F)F)cc1 [Quinoline-O-demethylate]	30	
